Data reported in EPA's ToxValDB 9.5.

Tests used:
[1] = system: Coturnix japonica; details: repeat dose other; oral
[2] = system: Rattus norvegicus; details: repeat dose other; oral
[3] = system: Mus musculus; details: acute; inhalation
[4] = system: Rattus norvegicus; test: LD0; higher = less toxic; details: acute; oral; gavage
[5] = system: Rattus norvegicus; details: for NOAEL / LOAEL: inhalation
[6] = system: Canidae; details: acute; duration: 10 minutes; inhalation; unknown; Dog Other; Whole Body: Seizures
[7] = system: Rattus norvegicus; details: subchronic; oral; M; mortality
[8] = system: Mus musculus; details: repeat dose other; oral
[9] = system: Chalcophaps sp.; details: oral
[10] = system: Rattus norvegicus; details: chronic; duration: 52 weeks; oral; diet; Whole body: Increased mortality
[11] = system: Rattus norvegicus; details: Hershberger, oral, gavage, Sprague-Dawley, active + Antiandrogenic + anti-androgenic + PPS delayed
[12] = system: Rattus norvegicus; details: subchronic, oral, diet, Fischer 344, Body Weight Changes: decrease + Food Consumption: decrease + Hematology: Hct decrease, Hgb decrease, RBC decrease, N-RBC increase, MCV …
[13] = system: Rattus norvegicus; details: developmental; duration: 9 days; oral; gavage; M/F; Sprague-Dawley; developmental
[14] = reproduction developmental, duration: 9 days, F, Crl:CD(SD), generation: P0, P0: Skin: Stained Fur + P0: Whole Body: Body Weight Change + P0: Whole Body: Convulsions + P0: Whole Body: Feed Consumption, Absolute
[15] = reproduction developmental, duration: 9 days, M/F, Crl:CD(SD), generation: F1, F1: Whole Body: Pup Weight Relative to Litter
[16] = reproduction developmental, duration: 107 days, M, Crj:CD, generation: P0, P0: Whole Body: Clonic Seizures + P0: Whole Body: Mortality
[17] = reproduction developmental, duration: 121 days, F, Crl:CD(SD), generation: P0, P0: Liver: Liver Weight, Absolute + P0: Liver: Liver Weight, Relative + P0: Pituitary: Pituitary Gland Weight, Absolute + P0: Pituitary: …
[18] = subchronic, duration: 90 days, F, Crl:CD(SD) BR, Blood: Albumin (A) + Renal: Urine Osmolality + Renal: Urine Volume (UVOL) + Whole Body: Motor Activity
[19] = subchronic, duration: 90 days, F, Crl:CD(SD) BR, Central Nervous System: Abnormal Behavior
[20] = subchronic, duration: 90 days, M, Crl:CD(SD) BR, Blood: Albumin (A) + Whole Body: Motor Activity
[21] = subchronic, duration: 90 days, M, Crl:CD(SD) BR, Central Nervous System: Abnormal Behavior
[22] = developmental, oral, gavage, M, Crl:CD(SD), generation: F1, F1: AGD (mm)

CC(=O)[O-].CC(=O)[O-].[Pb+2] [Lead acetate]
LOAEL [1]: 11.3 mg/kg-day
NOAEL [1]: 1.13 mg/kg-day
LOAEL [2]: 80 mg/kg-day
NOAEL [2]: 8 mg/kg-day

FC(F)(Cl)C(F)(F)Cl [1,2-Dichloro-1,1,2,2-tetrafluoroethane]
LC50 [3]: 4.89e+06 mg/m3
LD0 [4]: > 2250 mg/kg

FC(C(F)C(F)(F)C(F)(F)F)C(F)(F)F (stereo unspecified) [2H,3H-Decafluoropentane]
NOAEL ([5]; reproduction developmental, duration: 9 days, F, Crl:CD(SD), generation: P0, P0: Ovary: Corpora Lutea + P0: Uterus: Implantation + P0: Uterus: Uterine Weight, Gravid): 35800 mg/m3
LOAEL [5, 14]: 20000 mg/m3
NOAEL [5, 14]: 5170 mg/m3
NOAEL ([5]; reproduction developmental, duration: 9 days, M/F, Crl:CD(SD), generation: F1, F1: Multi-Organ: Soft Tissue Examinations + F1: Skeleton: Skeletal Examinations + F1: Uterus: Resorptions, Early + F1: Uterus: Resorptions, …): 35800 mg/m3
LOAEL [5, 15]: 35800 mg/m3
NOAEL [5, 15]: 20000 mg/m3
NOAEL ([5]; reproduction developmental, duration: 107 days, M, Crj:CD, generation: P0, P0: Liver: Liver Weight, Absolute + P0: Liver: Liver Weight, Relative + P0: Pituitary: Pituitary Gland Weight, Absolute + P0: Pituitary: …): 36100 mg/m3
LOAEL [5, 16]: 36100 mg/m3
NOAEL [5, 16]: 20600 mg/m3
LOAEL [5, 17]: 36100 mg/m3
NOAEL [5, 17]: 20600 mg/m3
NOAEL ([5]; reproduction developmental, duration: 121 days, F, Crl:CD(SD), generation: P0, P0: Uterus: Implantation + P0: Whole Body: Fertility Index + P0: Whole Body: Maternal Body Weight + P0: Whole Body: Maternal Body Weight …): 36100 mg/m3
NOAEL ([5]; reproduction developmental, duration: 121 days, M/F, Crl:CD(SD), generation: F1, F1: Whole Body: Necropsy Appeared Normal + F1: Whole Body: Pup Weight Relative to Litter + F1: Whole Body: Survival + F1: Whole Body: …): 36100 mg/m3
NOAEL ([5]; subchronic, duration: 90 days, F, Crl:CD(SD) BR, Adrenal: Adrenal Gland Histopathology + Adrenal: Adrenal Gland Weight, Absolute + Adrenal: Adrenal Gland Weight, Relative + Brain: Brain …): 36100 mg/m3
LOAEL [5, 18]: 36100 mg/m3
NOAEL [5, 18]: 20600 mg/m3
LOAEL [5, 19]: 20600 mg/m3
NOAEL [5, 19]: 5150 mg/m3
NOAEL ([5]; subchronic, duration: 90 days, M, Crl:CD(SD) BR, Adrenal: Adrenal Gland Histopathology + Adrenal: Adrenal Gland Weight, Absolute + Adrenal: Adrenal Gland Weight, Relative + Brain: Brain …): 36100 mg/m3
LOAEL [5, 20]: 36100 mg/m3
NOAEL [5, 20]: 20600 mg/m3
LOAEL [5, 21]: 20600 mg/m3
NOAEL [5, 21]: 5150 mg/m3
LOAEL [6]: 103000 mg/m3
NOAEL [6]: 51500 mg/m3

CCCCOC(=O)c1ccccc1C(=O)OCCCC [Dibutyl 1,2-benzenedicarboxylate]
NOEL ([5]; developmental, oral, M, Albino, generation: F1, F1: AGD (units not specified)): 50 mg/kg-day
LOEL [5, 22]: 500 mg/kg-day
NOEL [5, 22]: 100 mg/kg-day
LOAEL [7]: 600 mg/kg-day
NOAEL [7]: 125 mg/kg-day
LOAEL [8]: 1830 mg/kg-day
NOAEL [8]: 550 mg/kg-day
LOAEL [9]: 1.1 mg/kg-day
NOAEL [9]: 0.11 mg/kg-day
NOAEL [10]: 125 mg/kg-day
NOEL ([11]; duration: 5 days): 500 mg/kg-day
NOEL ([11]; duration: 10 days): 500 mg/kg-day
NOEL ([12]; F): 177 mg/kg-day
NOEL ([12]; M/F): < 240 mg/kg-day
NOAEL [13]: 50 mg/kg-day
